# Experimental data: ChEMBL document CHEMBL1146844, “Probing a water channel near the A-ring of receptor-bound 1 alpha,25-dihydroxyvitamin D3 with selected 2 alpha-substituted analogues” (J Med Chem, 2006)
# Calls of active or inactive are those of the source. The calls are words filed in the database; no cut-off is given here.
# Tested on: HL-60
# Assay: Induction of HL60 cell differentiation in correlation with affinity to human VDR
# Type: functional, cell-based
row,SMILES,Activity
1,C=C1/C(=C\C=C2/CCC[C@]3(C)[C@@H]([C@H](C)CCCC(C)(C)O)CC[C@@H]23)C[C@H](O)[C@@H](OCCC)[C@H]1O,inactive
2,C=C1/C(=C\C=C2/CCC[C@]3(C)[C@@H]([C@H](C)CCCC(C)(C)O)CC[C@@H]23)C[C@@H](O)[C@H](OCCCO)[C@@H]1O,inactive
3,C=C1/C(=C\C=C2/CCC[C@]3(C)[C@@H]([C@H](C)CCCC(C)(C)O)CC[C@@H]23)C[C@@H](O)[C@H](CCC)[C@@H]1O,Active
4,C=C1/C(=C\C=C2/CCC[C@]3(C)[C@@H]([C@H](C)CCCC(C)(C)O)CC[C@@H]23)C[C@@H](O)[C@H](C)[C@@H]1O,Active
5,C=C1/C(=C\C=C2/CCC[C@]3(C)[C@@H]([C@H](C)CCCC(C)(C)O)CC[C@@H]23)C[C@@H](O)[C@H](CCCO)[C@@H]1O,Active
